Results as given in US20220306617A1, “SUBSTITUTED 1,3-PHENYL HETEROARYL DERIVATIVES AND THEIR USE IN THE TREATMENT OF DISEASE” (NOVARTIS AG, priority 2019, published 2022).
Several values for one entry are separate records, joined by “and”; a condition that tells them apart may be missing. Equal entries are not always repeated.

Biological target: T1, abc isoform of human TMEM16A channel expressed in CHO cells (Homo sapiens, UniProt Q5XXA6, DEL476-501)
T1 construct: expressed in transfected cells; host or cells: CHO cells, doxycycline-inducible expression under Blasticidin/Zeocin selection
T1 sequence (Q5XXA6 with tags, fused parts or gaps isoform Q5XXA6-5 DEL539-564): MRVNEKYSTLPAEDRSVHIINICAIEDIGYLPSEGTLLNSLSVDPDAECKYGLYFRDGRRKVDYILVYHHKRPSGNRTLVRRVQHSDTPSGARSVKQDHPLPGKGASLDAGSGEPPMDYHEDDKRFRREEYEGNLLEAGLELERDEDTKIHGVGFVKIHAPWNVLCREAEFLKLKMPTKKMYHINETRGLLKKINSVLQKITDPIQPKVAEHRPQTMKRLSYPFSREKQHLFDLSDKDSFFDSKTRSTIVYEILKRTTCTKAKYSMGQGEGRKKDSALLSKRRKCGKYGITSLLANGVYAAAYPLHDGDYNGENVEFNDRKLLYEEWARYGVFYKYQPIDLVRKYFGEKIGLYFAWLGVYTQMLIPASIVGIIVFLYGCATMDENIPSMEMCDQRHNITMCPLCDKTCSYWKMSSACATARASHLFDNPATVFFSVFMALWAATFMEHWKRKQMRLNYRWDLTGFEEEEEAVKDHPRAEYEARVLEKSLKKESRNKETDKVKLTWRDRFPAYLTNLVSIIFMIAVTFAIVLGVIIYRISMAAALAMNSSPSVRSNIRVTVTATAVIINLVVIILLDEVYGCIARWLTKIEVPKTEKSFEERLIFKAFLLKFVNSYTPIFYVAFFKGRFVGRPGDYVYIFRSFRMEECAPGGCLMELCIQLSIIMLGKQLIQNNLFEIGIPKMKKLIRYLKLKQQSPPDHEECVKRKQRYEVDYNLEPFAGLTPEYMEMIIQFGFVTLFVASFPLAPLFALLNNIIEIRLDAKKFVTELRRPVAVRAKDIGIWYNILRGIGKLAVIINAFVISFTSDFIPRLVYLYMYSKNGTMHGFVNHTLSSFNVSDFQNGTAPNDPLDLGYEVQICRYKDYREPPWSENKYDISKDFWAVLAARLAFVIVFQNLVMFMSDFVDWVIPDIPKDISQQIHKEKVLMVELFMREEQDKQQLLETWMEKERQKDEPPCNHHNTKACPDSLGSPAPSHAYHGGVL
Test: Automated patch clamping (QPatch) assay to measure TMEM16A activity in whole-cell
Assay type: cell-based
Details: for EC50: CHO cells expressing human TMEM16A (abc), whole-cell automated patch clamp, Hill fit, read-out: TMEM16A QPATCH assay EC50 V3 EC50; for Emax: CHO, read-out: TMEM16A QPATCH assay EC50 V3 Assay Window (% TMEM16A max activation)
Outline: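 CHO cells with doxycycline-induced (1 μg/mL, 18-24 h) human TMEM16A abc isoform; QPatch whole-cell recording, hold −70 mV, step +70 mV 1500 ms, then −90 to +70 mV ramp. Compounds in 0.3% DMSO; EC50 by Hill fit; % max activation relative to vehicle baseline and reference potentiator maximum.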

[1] = maximum current at highest dose relative to reference potentiator at maximal concentration (upper limit) and vehicle (lower limit)

Row | SMILES | EC50 | Emax [1] [%] | TMEM16A QPATCH assay EC50 V3 Assay Window (% TMEM16A max activation) [1] [%]
1 | CCC(CC)NC(=O)c1cnc(-c2cccc(-c3cc(C(=O)NCCSC(C)(C)C)n[nH]3)c2)o1 [Example 3.23, 2-(3-(3-((2-(Tert-Butylthio)Ethyl)Carbamoyl)-1H-Pyrazol-5-Yl)Phenyl)-N-(Pentan-3-Yl)Oxazole-5-Carboxamide] | 130 nM | 79 | 
2 | C[C@H](NC(=O)c1cnc(-c2cccc(-c3nnc(C(=O)NC4CCC(F)(F)CC4)[nH]3)c2)o1)C1CC1 [Example 13.4, (S)-N-(1-Cyclopropylethyl)-2-(3-(5-((4,4-Difluorocyclohexyl)Carbamoyl)-4H-1,2,4-Triazol-3-Yl)Phenyl)Oxazole-5-Carboxamide] | 940 nM | 80 | 
3 | CCC(CC)NC(=O)c1cc(-c2cccc(-c3ncc(C(=O)NCc4c(F)cccc4F)o3)c2)[nH]n1 [Example 1.43, N-(2,6-Difluorobenzyl)-2-(3-(3-(Pentan-3-Ylcarbamoyl)-1H-Pyrazol-5-yl)Phenyl)Oxazole-5-Carboxamide] | 430 nM | 70 | 
4 | CCOC(=O)CCCCCn1nc(-c2cccc(-c3ncc(C(=O)NC(CC)CC)o3)c2)nc1C(=O)NC(CC)CC [Example 15.11] | 440 nM | 88 | 
5 | CCOC(=O)[C@H](CCSC)NC(=O)c1cnc(-c2cccc(-c3cc(C(=O)NC(CC)CC)n[nH]3)c2)o1 [Example 1.14, (S)-Ethyl 4-(Methylthio)-2-(2-(3-(3-(Pentan-3-Ylcarbamoyl)-1H-Pyrazol-5-yl)Phenyl)Oxazole-5-Carboxamido)Butanoate] | 680 nM | 111 | 
6 | O=C(NC1CCCC1)c1cnc(-c2cccc(-c3cc(C(=O)NC4CCCC4)n(CCCO)n3)c2)o1 [Example 5.2, N-Cyclopentyl-2-(3-(5-(Cyclopentylcarbamoyl)-1-(3-Hydroxypropyl)-1H-Pyrazol-3-Yl)Phenyl)Oxazole-5-Carboxamide] | 840 nM | 201 | 
7 | COC(=O)[C@H](CC1CCCCC1)NC(=O)c1cnc(-c2cccc(-c3cc(C(=O)NC(C4CC4)C4CC4)n[nH]3)c2)o1 [Example 1.4, (S)-Methyl 3-Cyclohexyl-2-(2-(3-(3-((Dicyclopropylmethyl)Carbamoyl)-1H-Pyrazol-5-Yl)Phenyl)Oxazole-5-Carboxamido)Propanoate] | 910 nM | 103 | 
8 | CCC(CC)NC(=O)c1cnc(-c2cccc(-c3cc(C(=O)N[C@H](C)C4CCCCC4)n[nH]3)c2)o1 [Example 3.44, (R)-2-(3-(3-((1-Cyclohexylethyl)Carbamoyl)-1H-Pyrazol-5-Yl)Phenyl)-N-(Pentan-3-Yl)Oxazole-5-Carboxamide] | 230 nM | 82 | 
9 | COC(=O)C1(NC(=O)c2cnc(-c3cccc(-c4cc(C(=O)N[C@@H](C)C5CC5)[nH]n4)c3)o2)CCC1 [Example 1.49, (S)-Methyl 1-(2-(3-(5-((1-Cyclopropylethyl)Carbamoyl)-1H-Pyrazol-3-Yl)Phenyl)Oxazole-5-Carboxamido)Cyclobutanecarboxylate] | 400 nM | 70 | 
10 | CC(C)OC(=O)[C@@H](NC(=O)c1cnc(-c2cccc(-c3nnc(C(=O)N[C@@H](C)C4CC4)[nH]3)c2)o1)C(C)C [Example 12.12] | 190 nM | 92 | 
11 | CCOC(=O)[C@@H](NC(=O)c1cnc(-c2cccc(-c3cc(C(=O)N[C@@H](C)C4CC4)n(CCO)n3)c2)o1)C(C)C [Example 4.2, (S)-Ethyl 2-(2-(3-(5-(((S)-1-Cyclopropylethyl)Carbamoyl)-1-(2-Hydroxyethyl)-1H-Pyrazol-3-Yl)Phenyl)Oxazole-5-Carboxamido)-3-Methylbutanoate] | 680 nM | 125 | 
12 | CCOC(=O)[C@@H](NC(=O)c1cnc(-c2cccc(-c3cc(C(=O)NC(CC)CC)n[nH]3)c2)o1)C(C)C [Example 1.1, (S)-Ethyl 3-Methyl-2-(2-(3-(3-(Pentan-3-Ylcarbamoyl)-1 H-Pyrazol-5-Yl)Phenyl)Oxazole-5-Carboxamido)Butanoate] | 20 nM and 10 nM | 90 | 100
13 | CCC(CC)NC(=O)c1cnc(-c2cccc(-c3cc(C(=O)Nc4cccc(OC(F)(F)F)c4)n[nH]3)c2)o1 [Example 3.14, N-(Pentan-3-Yl)-2-(3-(3-((3-(Trifluoromethoxy)Phenyl)Carbamoyl)-1 H-Pyrazol-5-Yl)Phenyl)Oxazole-5-Carboxamide] | 490 nM | 43 | 
14 | CCC(CC)NC(=O)c1cnc(-c2cccc(-c3cc(C(=O)NC(COC)C4CC4)n[nH]3)c2)o1 (stereo not drawn) [Example 3.1, 2-(3-(3-((1-Cyclopropyl-2-Methoxyethyl)Carbamoyl)-1H-Pyrazol-5-Yl)Phenyl)-N-(Pentan-3-Yl)Oxazole-5-Carboxamide] | 300 nM | 140 | 
15 | CCC(CC)NC(=O)c1cnc(-c2cccc(-c3cc(C(=O)N4CCCCC4)n[nH]3)c2)o1 [Example 3.33, N-(Pentan-3-Yl)-2-(3-(3-(Piperidine-1-Carbonyl)-1H-Pyrazol-5-Yl)Phenyl)Oxazole-5-Carboxamide] | 840 nM | 61 | 
16 | CCOC(=O)[C@H](Cc1ccccc1)NC(=O)c1cnc(-c2cccc(-c3cc(C(=O)NC(CC)CC)n[nH]3)c2)o1 [Example 1.38, (S)-Ethyl 2-(2-(3-(3-(Pentan-3-Ylcarbamoyl)-1 H-Pyrazol-5-yl)Phenyl)Oxazole-5-Carboxamido)-3-Phenylpropanoate] | 900 nM | 61 | 
17 | COC(=O)[C@@H](NC(=O)c1cnc(-c2cccc(-c3cc(C(=O)NC(C4CC4)C4CC4)n(CCO)n3)c2)o1)C(C)C [Example 4.3, (S)-Methyl 2-(2-(3-(5-((Dicyclopropylmethyl)Carbamoyl)-1-(2-Hydroxyethyl)-1H-Pyrazol-3-Yl)Phenyl)Oxazole-5-Carboxamido)-3-Methylbutanoate] | 90 nM | 167 | 
18 | COC(=O)[C@@H](NC(=O)c1cnc(-c2cccc(-c3nnc(C(=O)N[C@@H](C)C4CC4)[nH]3)c2)o1)C(C)(C)C [Example 12.10, (S)-Methyl 2-(2-(3-(5-(((S)-1-Cyclopropylethyl)Carbamoyl)-4H-1,2,4-Triazol-3-Yl)Phenyl)Oxazole-5-Carboxamido)-3,3-Dimethylbutanoate] | 190 nM | 92 | 
19 | CCC(CC)NC(=O)c1cnc(-c2cccc(-c3cc(C(=O)NC(C)(C4CC4)C(F)(F)F)n[nH]3)c2)o1 (stereo not drawn) [Example 3.8, 2-(3-(3-((2-Cyclopropyl-1,1,1-Trifluoropropan-2-Yl)Carbamoyl)-1H-Pyrazol-5-Yl)Phenyl)-N-(Pentan-3-Yl)Oxazole-5-Carboxamide] | 50 nM | 99 | 
